Test system: 883617-216-R-J1-PDC complex spheroid viability
Assay: Anticancer human tumor 883617-216-R-J1-PDC patient-derived bladder carcinoma cell line growth inhibition [POLQ]
Conditions: for IC50: curve of first compound; for viability, T/C: stronger effect = lower value
How it was run: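 Growth inhibition in 3D: complex spheroids (tumor PDC, HUVEC, MSC) treated with POLQ inhibitor combinations; where Cmax unknown, highest tested concentration 10 microM, except SN-38 at 1 microM.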
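Further: spheroids exposed to compounds for seven days before readout.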
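Wherever viability, T/C is given: 100% = DMSO vehicle control viability.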

`Cn1ncnc1[C@H]1c2n[nH]c(=O)c3cc(F)cc(c23)N[C@@H]1c1ccc(F)cc1` + COC1C(OC(N)=O)C(O)C(Oc2ccc3c(O)c(NC(=O)c4ccc(O)c(CC=C(C)C)c4)c(=O)oc3c2C)OC1(C)C was tested, and the IC50 (second compound 0.0316 µM) was > 100 nM, the IC50 (second compound 0.1 µM) was > 100 nM and the IC50 (second compound 0.316 µM) was > 100 nM. The IC50 (second compound 1 µM) was > 100 nM, the IC50 (second compound 3.16 µM) was > 100 nM and the IC50 (second compound 10 µM) was > 100 nM. It also gave a viability, T/C (second compound 0.0316 µM, first compound 0.000316 µM) of 103%, a viability, T/C (second compound 0.0316 µM, first compound 0.001 µM) of 93.1% and a viability, T/C (second compound 0.0316 µM, first compound 0.00316 µM) of 95.5%. The viability, T/C (second compound 0.0316 µM, first compound 0.01 µM) was 94.9%, the viability, T/C (second compound 0.0316 µM, first compound 0.0316 µM) was 72.8% and the viability, T/C (second compound 0.0316 µM, first compound 0.1 µM) was 78.4%. It also gave a viability, T/C (second compound 0.1 µM, first compound 0.000316 µM) of 110%, a viability, T/C (second compound 0.1 µM, first compound 0.001 µM) of 95.9% and a viability, T/C (second compound 0.1 µM, first compound 0.00316 µM) of 108%. It also gave a viability, T/C (second compound 0.1 µM, first compound 0.01 µM) of 80.2%, a viability, T/C (second compound 0.1 µM, first compound 0.0316 µM) of 75.8% and a viability, T/C (second compound 0.1 µM, first compound 0.1 µM) of 69.3%. It also gave a viability, T/C (second compound 0.316 µM, first compound 0.000316 µM) of 108%, a viability, T/C (second compound 0.316 µM, first compound 0.001 µM) of 99% and a viability, T/C (second compound 0.316 µM, first compound 0.00316 µM) of 89.9%. For the same molecule, the viability, T/C (second compound 0.316 µM, first compound 0.01 µM) was 82.9%, the viability, T/C (second compound 0.316 µM, first compound 0.0316 µM) was 67.5% and the viability, T/C (second compound 0.316 µM, first compound 0.1 µM) was 64%. For the same molecule, the viability, T/C (second compound 1 µM, first compound 0.000316 µM) was 95.8%, the viability, T/C (second compound 1 µM, first compound 0.001 µM) was 104% and the viability, T/C (second compound 1 µM, first compound 0.00316 µM) was 101%. For the same molecule, the viability, T/C (second compound 1 µM, first compound 0.01 µM) was 80.5%, the viability, T/C (second compound 1 µM, first compound 0.0316 µM) was 83.2% and the viability, T/C (second compound 1 µM, first compound 0.1 µM) was 76.9%. For the same molecule, the viability, T/C (second compound 3.16 µM, first compound 0.000316 µM) was 99.4%, the viability, T/C (second compound 3.16 µM, first compound 0.001 µM) was 102% and the viability, T/C (second compound 3.16 µM, first compound 0.00316 µM) was 101%. The viability, T/C (second compound 3.16 µM, first compound 0.01 µM) was 70.9%, the viability, T/C (second compound 3.16 µM, first compound 0.0316 µM) was 82.5% and the viability, T/C (second compound 3.16 µM, first compound 0.1 µM) was 68%. It also gave a viability, T/C (second compound 10 µM, first compound 0.000316 µM) of 94.2%, a viability, T/C (second compound 10 µM, first compound 0.001 µM) of 97.9% and a viability, T/C (second compound 10 µM, first compound 0.00316 µM) of 97.7%. The viability, T/C (second compound 10 µM, first compound 0.01 µM) was 71.6%, the viability, T/C (second compound 10 µM, first compound 0.0316 µM) was 79.5% and the viability, T/C (second compound 10 µM, first compound 0.1 µM) was 70.8%.
